Data: patent US9597331B2, “Therapeutic compositions containing macitentan” (ACTELION PHARMACEUTICALS LTD, priority 2008, dated 2017)

Tested on: pulmonary hypertensive male Wistar rats treated with monocrotaline
Experiment: Acute effect on mean pulmonary arterial pressure in monocrotaline treated rats (monocrotaline model of pulmonary hypertension, variant 2)
Assay type: in vivo, rat
Conditions: single administration, 25 to 30 days after monocrotaline, negative area = pressure decreases
Description: Male Wistar rats are purchased from Harlan (Netherlands) and maintained under conditions in accordance with local guidelines (Basel-Landschaft cantonal veterinary office). All rats are housed in climate-controlled conditions with a 12:12 hour light:dark cycle, and had free access to chow and water. A telemetry system is implanted under anaesthesia by inhalation of 2.5% isoflurane (in 70% O2+30% N2O). Under aseptic conditions, a pressure radio-frequency transmitter is implanted into the peritoneal cavity, and a sensing catheter is inserted in the pulmonary artery. The transmitter is sutured to the abdominal musculature and the skin is closed. […]
Four weeks after injection of MCT, the rats become pulmonary hypertensive and the respective effects of a single oral administration of Macitentan, of the compound having prostacyclin receptor (IP) agonist properties and of their combination can be evaluated on mean pulmonary arterial pressure. […]
Mean pulmonary arterial pressure was measured over time. […] Area Under Curve (AUC) was calculated for each group of rats after the oral administration of the different treatment(s) (a positive area being found if the mean pulmonary arterial blood pressure increases and a negative area being found if the mean pulmonary arterial blood pressure decreases).

Row | SMILES | AUC (Area Under Curve of mean pulmonary arterial pressure vs time) (NS-304 30 mg/kg per os) | AUC (Area Under Curve of mean pulmonary arterial pressure vs time) (macitentan 10 mg/kg per os)
1 | CC(C)N(CCCCOCC(=O)NS(C)(=O)=O)c1cnc(-c2ccccc2)c(-c2ccccc2)n1 [NS-304, 2-{4-[(5,6-diphenylpyrazin-2-yl)(isopropyl)amino]butoxy}-N-(methylsulfonyl)acetamide] | −99 ± 128 | –
2 | CCCNS(=O)(=O)Nc1ncnc(OCCOc2ncc(Br)cn2)c1-c1ccc(Br)cc1 [macitentan] | – | −381 ± 147
